Converted amounts (≈) assume the structure as drawn.
Columns and labels:
[1] = tested on: HCV RNA (HCV replicon in Huh 5-2 cells); experiment: microbe, parasite or virus in culture; format: cell-based, Hepatitis C Virus; settings: for EC50: Hepatitis C virus, Huh-5-2, 72 h, read-out: EC50 HCV RNA
in vitro [2] = settings: African green monkey
SARS-CoV = experiment: microbe, parasite or virus in culture; format: cell-based, Severe Acute Respiratory Syndrome corona virus (SARS-CoV); settings: for EC50: Severe acute respiratory syndrome coronavirus, Vero C1008, 72 h, read-out: EC50 (50% effective concentration required to reduce virus-induced cytopathicity by 50%)
in vitro [3] = settings: human, CC50 Cell growth
Huh 5-2 cells = settings: human

| Compound | EC50 HCV RNA [1] | EC50 [1] | CC50 (in vitro [2]) | Maximum protection (%) (at 125 μg/ml) (SARS-CoV) | EC50 (SARS-CoV) | CC50 (in vitro [3]) | CC50 Cell growth (Huh 5-2 cells) | concentration without toxicity (Huh 5-2 cells) |
| --- | --- | --- | --- | --- | --- | --- | --- | --- |
| Cc1cc(C)nc(NS(=O)(=O)c2ccc(/N=C3\C(=O)Nc4ccc(Br)cc43)cc2)n1 [SPIII-5Br] | 17 µg/mL (≈ 35 µM) | 19 µg/mL (≈ 39.1 µM) | > 125 µg/mL | 2% | > 125 µg/mL | 42 µg/mL (≈ 86.4 µM) | >50 µg/mL | – |
| Cc1cc(C)nc(NS(=O)(=O)c2ccc(/N=C3\C(=O)Nc4ccc(Cl)cc43)cc2)n1 [SPIII-5Cl] | – | > 50 µg/mL | > 125 µg/mL | 10% | > 125 µg/mL | > 50 µg/mL | – | – |
| Cc1cc(C)nc(NS(=O)(=O)c2ccc(/N=C3\C(=O)Nc4ccc(F)cc43)cc2)n1 [SPIII-5F] | – | 6 µg/mL (≈ 14.1 µM) | > 125 µg/mL | 45% | > 125 µg/mL | 42 µg/mL (≈ 98.7 µM) | – | up to 42 μg/ml |
| Cc1cc(C)nc(NS(=O)(=O)c2ccc(/N=C3\C(=O)Nc4ccccc43)cc2)n1 [SPIII-5H, 4-[(1,2-dihydro-2-oxo-3H-indol-3-ylidene)amino]-N(4,6-dimethyl-2-pyrimidiny)benzene sulphonamide] | 19 µg/mL (≈ 46.6 µM) | 17 µg/mL (≈ 41.7 µM) | > 125 µg/mL | 22% | > 125 µg/mL | 42 µg/mL (≈ 103 µM) | >50 µg/mL | – |
| Cc1ccc2c(c1)/C(=N/c1ccc(S(=O)(=O)Nc3nc(C)cc(C)n3)cc1)C(=O)N2 [SPIII-5Me] | – | > 50 µg/mL | > 125 µg/mL | 12% | > 125 µg/mL | > 50 µg/mL | – | – |
| CC(=O)N1C(=O)/C(=N\c2ccc(S(=O)(=O)Nc3nc(C)cc(C)n3)cc2)c2ccccc21 [SPIII-NA] | – | > 50 µg/mL | > 125 µg/mL | 12% | > 125 µg/mL | > 50 µg/mL | – | – |

Source: publication PMC2852069 (Indian Journal of Pharmaceutical Sciences, 2008)
